Paper PMC11079024, “Identification of a family of species-selective complex I inhibitors as potential anthelmintics” (Nature Communications, 2024)
Where “and” joins values, the source holds several entries; their conditions need not be identical. Equal entries are not always repeated. Where two headings read alike, the source gives them in different places.

How the values were obtained:
L1 wild-type C. elegans [1] = assay: whole plant or invertebrate; conditions: Caenorhabditis elegans, 15 h
C. elegans = C. elegans chemical screens of RIKEN NPD libraries at 50 μM (hit identification in KCN survival and development/viability assays); format: cell-based, Caenorhabditis elegans; conditions: screened at 50 μM in triplicate; […]; KCN = KCN survival assay, Dev. & Viability = development/viability assay
L1 wild-type C. elegans [2] = assay: 15-hour motility assay with drug alone (no KCN); format: cell-based, Caenorhabditis elegans; conditions: without KCN, 15-hour; for Value relative to DMSO control, drug alone (without KCN), Mean: mean of replicates; for Value relative to DMSO control, drug alone (without KCN): single replicates
L1 wild-type C. elegans [3] = conditions: drug + KCN, 15-hour; for KCN survival assay value relative to DMSO control, Mean: mean of replicates; for KCN survival assay value relative to DMSO control: single replicates

CCCC/C=C\C/C=C\CCCCCCCCc1cccc(O)c1C(=O)O [6-heptadeca-9Z,12Z-dienyl salicylic acid]
LC50 (L1 wild-type C. elegans [1]; read-out: C. elegans KCN Survival Assay LC50): 3970 nM
Hit Type (C. elegans): KCN

O=C(Nc1cc(Cl)cc(Cl)c1O)c1c(O)c(Cl)cc(Cl)c1Cl [Oxyclozanide]
LC50 (L1 wild-type C. elegans [1]; read-out: C. elegans KCN survival assay LC50): 158 nM
Value relative to DMSO control, drug alone (without KCN), Mean (L1 wild-type C. elegans [2]; 0.025 µM): 0.970
Value relative to DMSO control, drug alone (without KCN) (L1 wild-type C. elegans [2]; 0.025 µM): 1.075 and 0.779 and 1.056
Value relative to DMSO control, drug alone (without KCN), Mean (L1 wild-type C. elegans [2]; 0.05 µM): 1.040
Value relative to DMSO control, drug alone (without KCN) (L1 wild-type C. elegans [2]; 0.05 µM): 0.978 and 1.142 and 1.000
Value relative to DMSO control, drug alone (without KCN), Mean (L1 wild-type C. elegans [2]; 0.1 µM): 1.014
Value relative to DMSO control, drug alone (without KCN) (L1 wild-type C. elegans [2]; 0.1 µM): 1.026 and 1.091 and 0.926
Value relative to DMSO control, drug alone (without KCN), Mean (L1 wild-type C. elegans [2]; 0.2 µM): 0.862
Value relative to DMSO control, drug alone (without KCN) (L1 wild-type C. elegans [2]; 0.2 µM): 0.850 and 0.960 and 0.775
Value relative to DMSO control, drug alone (without KCN), Mean (L1 wild-type C. elegans [2]; 0.4 µM): 0.811
Value relative to DMSO control, drug alone (without KCN) (L1 wild-type C. elegans [2]; 0.4 µM): 0.730 and 0.844 and 0.861
Value relative to DMSO control, drug alone (without KCN), Mean (L1 wild-type C. elegans [2]; 0.8 µM): 0.863
Value relative to DMSO control, drug alone (without KCN) (L1 wild-type C. elegans [2]; 0.8 µM): 0.803 and 1.008 and 0.777
Value relative to DMSO control, drug alone (without KCN), Mean (L1 wild-type C. elegans [2]; 3.1 µM): 0.927
Value relative to DMSO control, drug alone (without KCN) (L1 wild-type C. elegans [2]; 3.1 µM): 0.899 and 1.068 and 0.814
Value relative to DMSO control, drug alone (without KCN), Mean (L1 wild-type C. elegans [2]; 6.3 µM): 0.856
Value relative to DMSO control, drug alone (without KCN) (L1 wild-type C. elegans [2]; 6.3 µM): 0.946 and 0.940 and 0.683
Value relative to DMSO control, drug alone (without KCN), Mean (L1 wild-type C. elegans [2]; 12.5 µM): 0.986
Value relative to DMSO control, drug alone (without KCN) (L1 wild-type C. elegans [2]; 12.5 µM): 0.842 and 1.234 and 0.881
Value relative to DMSO control, drug alone (without KCN), Mean (L1 wild-type C. elegans [2]; 25 µM): 0.843
Value relative to DMSO control, drug alone (without KCN) (L1 wild-type C. elegans [2]; 25 µM): 0.680 and 1.053 and 0.797
KCN survival assay value relative to DMSO control, Mean (L1 wild-type C. elegans [3]; 0.025 µM): 1.036
KCN survival assay value relative to DMSO control (L1 wild-type C. elegans [3]; 0.025 µM): 1.103 and 1.007 and 0.999
KCN survival assay value relative to DMSO control, Mean (L1 wild-type C. elegans [3]; 0.05 µM): 1.033
KCN survival assay value relative to DMSO control (L1 wild-type C. elegans [3]; 0.05 µM): 1.103 and 1.025 and 0.972
KCN survival assay value relative to DMSO control, Mean (L1 wild-type C. elegans [3]; 0.1 µM): 0.765
KCN survival assay value relative to DMSO control (L1 wild-type C. elegans [3]; 0.1 µM): 0.944 and 0.659 and 0.693
KCN survival assay value relative to DMSO control, Mean (L1 wild-type C. elegans [3]; 0.2 µM): 0.371
KCN survival assay value relative to DMSO control (L1 wild-type C. elegans [3]; 0.2 µM): 0.478 and 0.398 and 0.238
KCN survival assay value relative to DMSO control, Mean (L1 wild-type C. elegans [3]; 0.4 µM): 0.077
KCN survival assay value relative to DMSO control, Mean (L1 wild-type C. elegans [3]; 0.8 µM): 0.012
KCN survival assay value relative to DMSO control, Mean (L1 wild-type C. elegans [3]; 3.1 µM): 0.000
KCN survival assay value relative to DMSO control (L1 wild-type C. elegans [3]; 3.1 µM): 0.000
KCN survival assay value relative to DMSO control, Mean (L1 wild-type C. elegans [3]; 6.3 µM): 0.000
KCN survival assay value relative to DMSO control (L1 wild-type C. elegans [3]; 6.3 µM): 0.000
KCN survival assay value relative to DMSO control, Mean (L1 wild-type C. elegans [3]; 12.5 µM): 0.0006
KCN survival assay value relative to DMSO control, Mean (L1 wild-type C. elegans [3]; 25 µM): 0.000
KCN survival assay value relative to DMSO control (L1 wild-type C. elegans [3]; 25 µM): 0.000
